Earlier results in EP0398588A1, “Macrolide antibiotics” (ELI LILLY AND COMPANY, priority 1989, dated 1990).

System: rats
Conditions: rat, in vivo, po

For `O=C1C[C@@H]2OCC=C3CN4CC[C@]56c7ccccc7N1[C@H]5[C@H]2[C@H]3C[C@H]46` [strychnine], the MLD is listed as 5 mg/kg.
